In patent US20260042763A1, “PE[…] POSITIVE […] THE TREATMENT OF IRRITABLE BOWEL SYNDROME AND OTHER AILMENTS OF THE PERIPHERAL NERVOUS SYSTEM” (The Johns Hopkins University, priority 2022, published 2026):
Read-outs that look alike come from different tables or passages of the source.

Target: T1, human isoforms of GABAA (α3ß2γ2) receptors (Homo sapiens, UniProt P18507+P34903)
T1 construct: expressed in transfected cells
Assay: Potentiation of GABA-evoked currents at GABAA (α3β2γ2) receptors, automated patch-clamp (QPatch), Example B1
Format: cell-based
Conditions: for Emax: Emax of potentiation, read-out: Max %
Procedure: The ability of compounds exemplified above to potentiate the effect of GABA on GABAA receptors (α3β2γ2) was determined using one or more of the methods described below.
Ltk cells stably expressing the human isoforms of GABAA (α3ß2γ2) receptors were used together with submaximal GABA concentrations to investigate the modulatory effects of the test items. Cells were incubated at 37° C. in a humidified atmosphere with 5% CO2 (rel. humidity about 95%). The cells were continuously maintained in and passaged in sterile culture flasks containing a 1:1 mixture of Dulbecco's modified eagle medium and nutrient mixture D-MEM/F-12 (1×, liquid, with L-Glutamine), supplemented with 10% fetal bovine serum and 1.0% Penicillin/Streptomycin solution. The complete medium as indicated above was supplemented with neomycin. In general, cells were passaged at a confluence of about 80 to 90%. For electrophysiological measurements cells were harvested at a confluence of about 80 to 90% from sterile culture flasks containing culture complete medium. Cells were transferred as suspension in PBS to the QPatch 16X or QPatch HTX system to the centrifuge/washer directly. Expression of GABA receptor was induced by adding Dexamethasone to the cells for 24 to 48 h before experimentation.
Modulatory effects of the compounds of this disclosure were investigated using cells stably transfected with GABA-activated channels of the GABAA (α3ß2γ2) subtype together with submaximal GABA concentrations. Expression of GABA receptor were induced by adding Dexamethasone to the cells for 24 to 48 h before experimentation. In general, cells were passaged at a confluence of about 80 to 90%. For electrophysiological measurements cells were harvested at a confluence of about 80 to 90% from sterile culture flasks containing culture complete medium. Cells were transferred as suspension in PBS to the QPatch 16X or QPatch HTX system to the centrifuge/washer directly. Cells were incubated at 37° C. in a humidified atmosphere with 5% CO2 (rel. humidity about 95%). The cells were continuously maintained in and passaged in sterile culture flasks containing a 1:1 mixture of Dulbecco's modified eagle medium and nutrient mixture D-MEM/F-12 (1×, liquid, with L-Glutamine), supplemented with 10% foetal bovine serum and 1.0% Penicillin/Streptomycin solution and neomycin. The 1× bath solution was made at least every 5 days out of a sterile 10× bath solution, which had been prepared prior to the experimental start of the present study and stored at 1° C. to 9° C. The final bath solution included Sodium Chloride 137 mM, Potassium Chloride 4 mM, Calcium Chloride 1.8 mM, Magnesium Chloride 1 mM, HEPES 10 mM, D-Glucose 10 mM, pH (NaOH) 7.4. The 1× intracellular solution was thawed every day and includes Potassium Chloride 130 mM, Magnesium Chloride 1 mM, Mg-ATP 5 mM, HEPES 10 mM, EGTA 5 Mm, pH (KOH) 7.2. Automated patch-clamping: Cells were transferred as suspension in serum-free medium to the QPatch HTX system and kept in the cell storage tank during experiments. All solutions applied to cells including the intracellular solution were maintained at room temperature (19° C. to 30° C.). After formation of a Gigaohm seal between the patch electrodes and transfected individual Ltk cells were ruptured to assure electrical access to the cell interior (whole-cell patch-configuration). Inward currents were measured upon application of 2.0 μM GABA to patch-clamped cells for 4 s. During the entire experiment the cells were voltage-clamped at a holding potential of −80 mV. For the analysis of test items, GABAA receptors were stimulated by 2.0 μM GABA and test item combinations described below. Thirty-second prewash steps with test items was performed in between two agonist applications. […]

[1] = Ltk cells expressing GABAA α3β2γ2, 2.0 μM GABA, whole-cell, holding potential −80 mV

T1 sequence (P34903 29-492): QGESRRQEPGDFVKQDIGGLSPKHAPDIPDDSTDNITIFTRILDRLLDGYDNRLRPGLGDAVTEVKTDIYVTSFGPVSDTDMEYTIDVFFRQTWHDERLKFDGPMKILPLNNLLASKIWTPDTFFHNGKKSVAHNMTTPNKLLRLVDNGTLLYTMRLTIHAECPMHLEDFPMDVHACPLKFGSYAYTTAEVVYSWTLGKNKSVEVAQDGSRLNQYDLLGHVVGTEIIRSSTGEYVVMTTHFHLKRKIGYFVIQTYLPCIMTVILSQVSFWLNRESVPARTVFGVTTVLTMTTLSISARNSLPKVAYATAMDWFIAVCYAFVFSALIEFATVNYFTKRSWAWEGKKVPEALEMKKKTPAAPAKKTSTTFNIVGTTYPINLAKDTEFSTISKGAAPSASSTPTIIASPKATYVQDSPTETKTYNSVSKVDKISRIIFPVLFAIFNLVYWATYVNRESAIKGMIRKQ
T1 sequence (P47870 25-512 partner limits assumed): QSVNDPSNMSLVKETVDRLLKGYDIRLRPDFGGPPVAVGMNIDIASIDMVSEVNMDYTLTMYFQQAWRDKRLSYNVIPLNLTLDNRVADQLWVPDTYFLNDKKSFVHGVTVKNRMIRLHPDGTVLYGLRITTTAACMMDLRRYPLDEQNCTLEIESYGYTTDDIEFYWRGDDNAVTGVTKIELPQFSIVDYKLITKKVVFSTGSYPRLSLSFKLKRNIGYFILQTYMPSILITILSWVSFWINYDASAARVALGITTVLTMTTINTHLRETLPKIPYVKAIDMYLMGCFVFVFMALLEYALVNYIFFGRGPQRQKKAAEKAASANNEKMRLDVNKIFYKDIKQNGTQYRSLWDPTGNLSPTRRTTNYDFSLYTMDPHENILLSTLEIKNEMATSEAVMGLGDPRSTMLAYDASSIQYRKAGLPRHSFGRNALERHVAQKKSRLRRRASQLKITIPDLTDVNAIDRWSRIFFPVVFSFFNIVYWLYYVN
T1 sequence (P18507 40-475): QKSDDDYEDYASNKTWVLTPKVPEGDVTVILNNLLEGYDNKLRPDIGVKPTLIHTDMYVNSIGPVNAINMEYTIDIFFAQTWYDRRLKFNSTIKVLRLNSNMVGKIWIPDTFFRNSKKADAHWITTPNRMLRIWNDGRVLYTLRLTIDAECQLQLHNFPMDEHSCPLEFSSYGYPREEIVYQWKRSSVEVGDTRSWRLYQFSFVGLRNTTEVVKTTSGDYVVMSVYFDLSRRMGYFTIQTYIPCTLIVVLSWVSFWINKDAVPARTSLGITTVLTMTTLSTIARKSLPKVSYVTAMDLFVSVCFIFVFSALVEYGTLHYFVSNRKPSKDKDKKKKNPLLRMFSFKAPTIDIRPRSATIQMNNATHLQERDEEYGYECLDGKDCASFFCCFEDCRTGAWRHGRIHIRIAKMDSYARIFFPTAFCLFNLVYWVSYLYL

Compound	EC50 [nM]	Emax [1] [%]	EC50 (Ltk cells expressing GABAA α3β2γ2, 2.0 μM GABA, whole-cell, holding potential −80 mV, read-out: EC50) [nM]
O=C(O)c1nc2n(c1C1CC1)-c1ccc(Cl)cc1C(c1ccccc1F)=NC2 [Compound 212, 8-chloro-1-cyclopropyl-6-(2-fluorophenyl)-4H-imidazo[1,2-a][1,4]benzodiazepine-2-carboxylic acid]	> 100	> 100	–
Cc1c(C(=O)O)nc2n1-c1ccc(Cl)cc1C(c1ccccc1F)=NC2 [Compound 213, 8-chloro-6-(2-fluorophenyl)-1-methyl-4H-imidazo[1,2-a][1,4]benzodiazepine-2-carboxylic acid]	< 50	> 100	–
O=C(O)c1cn2c(n1)CN=C(c1c(F)cccc1F)c1cc(Cl)ccc1-2 [Compound 214, 8-chloro-6-(2,6-difluorophenyl)-4H-imidazo[1,2-a][1,4]benzodiazepine-2-carboxylic acid]	< 50	50 to 100	–
O=C(O)c1cn2c(n1)CN=C(c1cccc(F)c1F)c1cc(Cl)ccc1-2 [Compound 215, 8-chloro-6-(2,3-difluorophenyl)-4H-imidazo[1,2-a][1,4]benzodiazepine-2-carboxylic acid]	< 50	> 100	–
O=C(O)c1cn2c(n1)CN=C(c1ccc(F)cc1F)c1cc(Cl)ccc1-2 [Compound 216, 8-chloro-6-(2,4-difluorophenyl)-4H-imidazo[1,2-a][1,4]benzodiazepine-2-carboxylic acid]	–	< 50	–
CCc1c(C(=O)O)nc2n1-c1ccc(Cl)cc1C(c1ccccc1F)=NC2 [Compound 217, 8-chloro-1-ethyl-6-(2-fluorophenyl)-4H-imidazo[1,2-a][1,4]benzodiazepine-2-carboxylic acid]	< 50	> 100	–
O=C(O)c1cn2c(n1)CN=C(c1cccc(F)c1)c1cc(Cl)ccc1-2 [Compound 218, 8-chloro-6-(3-fluorophenyl)-4H-imidazo[1,2-a][1,4]benzodiazepine-2-carboxylic acid]	> 100	> 100	–
O=C(O)c1cn2c(n1)CN=C(c1ccc(F)cc1)c1cc(Cl)ccc1-2 [Compound 219, 8-chloro-6-(4-fluorophenyl)-4H-imidazo[1,2-a][1,4]benzodiazepine-2-carboxylic acid]	–	50 to 100	–
O=C(O)c1cn2c(n1)CN=C(c1ccccc1Cl)c1cc(Cl)ccc1-2 [Compound 220, 8-chloro-6-(2-chlorophenyl)-4H-imidazo[1,2-a][1,4]benzodiazepine-2-carboxylic acid]	< 50	> 100	–
O=C(O)c1cn2c(n1)CN=C(c1ccccc1F)c1cc(F)ccc1-2 [Compound 221, 8-fluoro-6-(2-fluorophenyl)-4H-imidazo[1,2-a][1,4]benzodiazepine-2-carboxylic acid]	50 to 100	50 to 100	–
O=C(O)c1cn2c(n1)CN=C(c1ccccc1F)c1cc(C3CC3)ccc1-2 [Compound 222, 8-cyclopropyl-6-(2-fluorophenyl)-4H-imidazo[1,2-a][1,4]benzodiazepine-2-carboxylic acid]	50 to 100	> 100	–
O=C(O)c1cn2c(n1)CN=C(c1ccccc1Cl)c1cc(F)ccc1-2 [Compound 223]	< 50	< 50	–
O=C(O)c1cn2c(n1)CN=C(c1ccccc1F)c1cccc(Cl)c1-2 [Compound 224]	> 100	< 50	–
O=C(O)c1cn2c(n1)CN=C(c1ccccc1F)c1ccc(Cl)cc1-2 [Compound 225, 9-chloro-6-(2-fluorophenyl)-4H-imidazo[1,2-a][1,4]benzodiazepine-2-carboxylic acid]	–	< 50	–
Cc1ccc2c(c1)C(c1ccccc1F)=NCc1nc(C(=O)O)cn1-2 [Compound 226, 6-(2-fluorophenyl)-8-methyl-4H-imidazo[1,2-a][1,4]benzodiazepine-2-carboxylic acid]	< 50	> 100	–
O=C(O)c1cn2c(n1)C(O)N=C(c1ccccc1F)c1cc(Cl)ccc1-2 (centres unmarked) [Compound 227, 8-chloro-6-(2-fluorophenyl)-4-hydroxy-4H-benzo[f]imidazo[1,2-a][1,4]diazepine-2-carboxylic acid]	–	50 to 100	–
CN(C)CCNC(=O)c1cn2c(n1)CN=C(c1ccccc1F)c1cc(Cl)ccc1-2 [Compound 228, 8-chloro-N-[2-(dimethylamino)ethyl]-6-(2-fluorophenyl)-4H-imidazo[1,2-a][1,4]benzodiazepine-2-carboxamide]	< 50	50 to 100	–
COCCOCCOCCOCCOCCOCCOCCOCCNC(=O)c1cn2c(n1)CN=C(c1ccccc1F)c1cc(Cl)ccc1-2 [Compound 229, 8-chloro-6-(2-fluorophenyl)-N-[2-[2-[2-[2-[2-[2-[2-(2-methoxyethoxy)ethoxy]ethoxy]ethoxy]ethoxy]ethoxy]ethoxy]ethyl]-4H-imidazo[1,2-a][1,4]benzodiazepine-2-carboxamide]	> 100	> 100	–
NC(=O)[C@H](O)c1cn2c(n1)CN=C(c1ccccc1F)c1cc(Cl)ccc1-2 [Compound 231, (2R)-2-[12-chloro-9-(2-fluorophenyl)-2,5,8-triazatricyclo[8.4.0.0^2,6]tetradeca-1 (10),3,5,8,11,13-hexaen-4-yl]-2-hydroxyacetamide]	< 50	> 100	–
NC(=O)C(NCc1ccccc1)c1cn2c(n1)CN=C(c1ccccc1F)c1cc(Cl)ccc1-2 (centres unmarked) [Compound 232, 2-(Benzylamino)-2-[12-chloro-9-(2-fluorophenyl)-2,5,8-triazatricyclo[8.4.0.0^2,6]tetradeca-1 (10),3,5,8,11,13-hexaen-4-yl]acetamide]	50 to 100	50 to 100	–
O=C(O)Cc1cn2c(n1)CN=C(c1ccccc1F)c1cc(Cl)ccc1-2 [Compound 233, 2-(8-chloro-6-(2-fluorophenyl)-4H-benzo[f]imidazo[1,2-a][1,4]diazepin-2-yl) acetic acid]	< 50	> 100	–
O=C(O[C@@H]1O[C@H](C(=O)O)[C@@H](O)[C@H](O)[C@H]1O)c1cn2c(n1)CN=C(c1ccccc1F)c1cc(Cl)ccc1-2 [Compound 234, (2S,3S,4S,5R,6S)-6-((8-chloro-6-(2-fluorophenyl)-4H-benzo[f]imidazo[1,2-a][1,4]diazepine-2-carbonyl)oxy)-3,4,5-trihydroxytetrahydro-2H-pyran-2-carboxylic acid]	–	50 to 100	< 50
O=C(O)c1nc2n(c1Cl)-c1ccc(Cl)cc1C(c1ccccc1F)=NC2 [Compound 235]	< 50	> 100	–
O=C(O)c1cn2c(n1)C[N+]([O-])=C(c1ccccc1F)c1cc(Cl)ccc1-2 [Compound 236, 2-carboxy-8-chloro-6-(2-fluorophenyl)-4H-514-benzo[e]imidazo[2,1-c][1,4]diazepin-5-olate]	> 100	50 to 100	–
NC(=O)c1cn2c(n1)CN=C(c1ccccc1F)c1cc(Cl)ccc1-2 [Compound 238, 8-chloro-6-(2-fluorophenyl)-4H-imidazo[1,2-a][1,4] benzodiazepine-2-carboxamide]	< 50	> 100	–
O=C(O)c1nc2n(c1-c1ccccc1)-c1ccc(Cl)cc1C(c1ccccc1F)=NC2 [Compound 239, 8-chloro-6-(2-fluorophenyl)-1-phenyl-4H-imidazo[1,2-a][1,4]benzodiaze pine-2-carboxylic acid]	> 100	> 100	–
CNC(=O)c1cn2c(n1)CN=C(c1ccccc1F)c1cc(Cl)ccc1-2 [Compound 240, 8-chloro-6-(2-fluorophenyl)-N-methyl-4H-imidazo[1,2-a][1,4]benzodiazepine-2-carboxamide]	< 50	> 100	–
